# Measurements as given in ChEMBL document CHEMBL5038640, “Natural Berberine-derived Azolyl Ethanols as New Structural Antibacterial Agents against Drug-Resistant Escherichia coli” (J Med Chem, 2022).
# The source made the active and inactive calls. The rule behind the calls is not given here.
# Legend:
# Pseudomonas aeruginosa [1] = assay: Antibacterial activity against Pseudomonas aeruginosa ATCC 27853 assessed as decrease in bacterial growth incubated for 18 hrs by broth microdilution method; type: functional
# Escherichia coli [2] = assay: Bactericidal activity against Escherichia coli assessed as reduction in colony formation at 8 times MIC measured after upto 6 hrs by time kill assay; type: functional, organism-based; settings: time hrs <=6
# Staphylococcus aureus [3] = assay: Antibacterial activity against Staphylococcus aureus ATCC 25923 assessed as decrease in bacterial growth incubated for 18 hrs by broth microdilution method; type: functional
# Klebsiella pneumoniae = assay: Antibacterial activity against Klebsiella pneumoniae assessed as decrease in bacterial growth incubated for 18 hrs by broth microdilution method; type: functional
# Escherichia coli [4] = assay: Antibacterial activity against Escherichia coli assessed as decrease in bacterial growth incubated for 18 hrs by broth microdilution method; type: functional
# Cell membrane [5] = assay: Induction of outer membrane permeabilization in Escherichia coli assessed as increase in fluorescence intensity at MIC incubated for 6 hrs by NPN-dye based fluorescence assay; type: subcellular
# Staphylococcus aureus [6] = assay: Antibacterial activity against methicillin-resistant Staphylococcus aureus N315 assessed as decrease in bacterial growth incubated for 18 hrs by broth microdilution method; type: functional
# [7] = Aqueous solubility of the compound in saline; type: physicochemical
# Cell membrane [8] = assay: Induction of Inner membrane permeabilization in Escherichia coli assessed as increase in fluorescence intensity at MIC incubated for 6 hrs by PI staining based assay; type: subcellular
# Escherichia coli [9] = assay: Antibacterial activity against Escherichia coli ATCC 25922 assessed as decrease in bacterial growth incubated for 18 hrs by broth microdilution method; type: functional
# [10] = Cytotoxicity against human FHC cells assessed as cell viability upto 0.100 mM incubated for 24 hrs by MTT assay; type: toxicity, cell-based; settings: read-out: Activity
# Escherichia coli [11] = assay: Biofilm disruption activity in Escherichia coli assessed as mass loss of biofilm upto 0.112 mM incubated for 24 hrs by crystal violet staining based assay; type: functional, organism-based; settings: dose mM <=0.112, time 24.0 hrs
# A549 = assay: Cytotoxicity against human A549 cells assessed as cell viability upto 0.100 mM incubated for 24 hrs by MTT assay; type: functional, cell-based; settings: dose mM <=0.100, time 24.0 hrs
# Escherichia coli [12] = assay: Antibacterial activity against Escherichia coli assessed as reduction in metabolic activity in presence of resazurin measured after 6 hrs by alamar blue assay; type: functional, organism-based
# Staphylococcus aureus [13] = assay: Antibacterial activity against Staphylococcus aureus assessed as decrease in bacterial growth incubated for 18 hrs by broth microdilution method; type: functional
# Staphylococcus aureus [14] = assay: Antibacterial activity against Staphylococcus aureus ATCC 29213 assessed as decrease in bacterial growth incubated for 18 hrs by broth microdilution method; type: functional
# Escherichia coli [15] = assay: Induction of bacterial resistance in Escherichia coli assessed as fold increase in MIC measured after 16 days by resistance development assay; type: functional; settings: time 16.0 day
# Escherichia coli [16] = assay: Anti-bioflim activity against Escherichia coli assessed as inhibition of bioflim formation at MIC incubated for 24 hrs followed by compound washout by crystal violet staining based assay; type: functional
# Cell membrane [17] = assay: Induction of membrane depolarization in Escherichia coli at 0.007 to 0.112 mM incubated for 6 hrs by DiSC35 dye-based fluorescence assay; type: subcellular; settings: dose 0.007-0.112 mM
# Cell membrane [18] = assay: Induction of cell membrane disruption in Escherichia coli assessed as increase in protein leakage upto 0.192 mM by Bradford assay; type: subcellular; settings: dose mM <=0.192
# Acinetobacter baumannii = assay: Antibacterial activity against Acinetobacter baumannii assessed as decrease in bacterial growth incubated for 18 hrs by broth microdilution method; type: functional
# Escherichia coli [19] = assay: Biofilm disruption activity in Escherichia coli assessed as reduction in exo-polysaccharide incubated for 24 hrs by crystal violet staining based assay; type: functional, organism-based
# Calf thymus DNA = assay: Binding affinity to calf thymus DNA assessed as red shift in absorption spectra at pH 7.4 by UV-vis absorption spectroscopy; type: nucleic-acid assay; settings: Bos taurus
# Escherichia coli [20] = assay: Induction of intracellular ROS production in Escherichia coli assessed as increase in ROS accumulation at 0.007 to 0.224 mM incubated for 6 hrs by DCFH-DA assay; type: functional, organism-based; settings: dose 0.007-0.224 mM
# Escherichia coli [21] = assay: Biofilm disruption activity in Escherichia coli at MIC incubated for 24 hrs by crystal violet staining based assay; type: functional; settings: dose 0.007 mM
# [22] = Hemolytic activity against human RBC assessed as 50% hemolysis measured upto 64 times of MIC after 1 to 8 hr; type: toxicity, cell-based; settings: erythrocyte, time 1-8 hrs
# Cell membrane [23] = assay: Induction of membrane disruption in Escherichia coli at 2 times of MIC incubated for 6 hrs by DAPI staining and propidium iodide staining based fluorescence assay; type: subcellular
# Enterococcus faecalis = assay: Antibacterial activity against Enterococcus faecalis assessed as decrease in bacterial growth incubated for 18 hrs by broth microdilution method; type: functional
# [24] = Cytotoxicity against human PNT1A cells assessed as cell viability upto 0.100 mM incubated for 24 hrs by MTT assay; type: toxicity, cell-based; settings: read-out: Activity
# Escherichia coli [25] = assay: Induction of bacterial resistance in Escherichia coli assessed as change in MIC measured after 16 days by resistance development assay; type: functional; settings: time 16.0 day
# Cell membrane [26] = assay: Induction of cell membrane disruption in Escherichia coli assessed as increase in protein leakage upto 0.224 mM by Bradford assay; type: subcellular; settings: dose mM <=0.224
# Pseudomonas aeruginosa [27] = assay: Antibacterial activity against Pseudomonas aeruginosa assessed as decrease in bacterial growth incubated for 18 hrs by broth microdilution method; type: functional
# DNA = assay: Competitive binding affinity to Escherichia coli DNA assessed as DNA intercalation by AO staining based assay; type: nucleic-acid assay
# Escherichia coli [28] = assay: Induction of intracellular ROS production in Escherichia coli assessed as increase in ROS accumulation at 0.006 to 0.192 mM incubated for 6 hrs by DCFH-DA assay; type: functional, organism-based; settings: dose 0.006-0.192 mM
# Cell membrane [29] = assay: Induction of membrane depolarization in Escherichia coli at 0.006 to 0.096 mM incubated for 6 hrs by DiSC35 dye-based fluorescence assay; type: subcellular; settings: dose 0.006-0.096 mM
# Escherichia coli [30] = assay: Biofilm disruption activity in Escherichia coli assessed as mass loss of biofilm upto 0.096 mM incubated for 24 hrs by crystal violet staining based assay; type: functional, organism-based; settings: dose mM <=0.096, time 24.0 hrs
compound,measurement,setting,value
COc1ccc2cc3[n+](cc2c1OCC(O)Cn1c([N+](=O)[O-])cnc1C)CCc1cc2c(cc1-3)OCO2.[Br-] (stereo not given),MIC,Pseudomonas aeruginosa [1],55 µM
same,Activity,Escherichia coli [2],Active
same,MIC,Staphylococcus aureus [3],55 µM
same,MIC,Klebsiella pneumoniae,27 µM
same,MIC,Escherichia coli [4],7 µM
same,Activity,Cell membrane [5],Active
same,MIC,Staphylococcus aureus [6],14 µM
same,solubility,[7],908 µM
same,Activity,Cell membrane [8],Active
same,MIC,Escherichia coli [9],55 µM
same,viability at 24 h,[10],70%
same,Activity,Escherichia coli [11],Dose-Dependent Effect
same,Activity,A549,inactive
same,Activity,Escherichia coli [12],Active
same,MIC,Staphylococcus aureus [13],109 µM
same,MIC,Staphylococcus aureus [14],55 µM
same,Activity,Escherichia coli [15],inactive
same,inhibition (INH),Escherichia coli [16],28.25%
same,Activity,Cell membrane [17],Active
same,Activity,Cell membrane [18],Active
same,MIC,Acinetobacter baumannii,14 µM
same,Activity,Escherichia coli [19],Active
same,Activity,Calf thymus DNA,Active
same,Activity,Escherichia coli [20],Active
same,Activity,Escherichia coli [21],40%
same,Activity,[22],Non-Toxic
same,Activity,Cell membrane [23],Active
same,MIC,Enterococcus faecalis,14 µM
same,viability at 24 h,[24],70%
same,Activity,Escherichia coli [25],inactive
same,Activity,Cell membrane [26],Active
same,MIC,Pseudomonas aeruginosa [27],55 µM
same,Activity,DNA,Active
COc1ccc2cc3[n+](cc2c1OCC(O)CSc1nc2ccccc2s1)CCc1cc2c(cc1-3)OCO2.[Br-] (stereo not given),MIC,Pseudomonas aeruginosa [1],51 µM
same,Activity,Escherichia coli [2],Active
same,Activity,Escherichia coli [28],Active
same,MIC,Staphylococcus aureus [3],13 µM
same,MIC,Klebsiella pneumoniae,13 µM
same,MIC,Escherichia coli [4],6 µM
same,Activity,Cell membrane [5],Active
same,MIC,Staphylococcus aureus [6],6 µM
same,solubility,[7],770 µM
same,Activity,Cell membrane [8],Active
same,MIC,Escherichia coli [9],51 µM
same,viability at 24 h,[10],70%
same,Activity,A549,inactive
same,Activity,Escherichia coli [12],Active
same,MIC,Staphylococcus aureus [13],51 µM
same,MIC,Staphylococcus aureus [14],51 µM
same,Activity,Escherichia coli [15],inactive
same,inhibition (INH),Escherichia coli [16],21.87%
same,Activity,Cell membrane [18],Active
same,MIC,Acinetobacter baumannii,26 µM
same,Activity,Escherichia coli [19],Active
same,Activity,Calf thymus DNA,Active
same,Activity,Escherichia coli [21],15%
same,Activity,[22],Non-Toxic
same,Activity,Cell membrane [29],Active
same,Activity,Cell membrane [23],Active
same,Activity,Escherichia coli [30],Dose-Dependent Effect
same,MIC,Enterococcus faecalis,51 µM
same,viability at 24 h,[24],70%
same,Activity,Escherichia coli [25],inactive
same,Activity,Cell membrane [26],Active
same,MIC,Pseudomonas aeruginosa [27],102 µM
same,Activity,DNA,Active
CCn1cc(C(=O)O)c(=O)c2cc(F)c(N3CCNCC3)cc21 [NORFLOXACIN],MIC,Pseudomonas aeruginosa [1],200 µM
same,MIC,Staphylococcus aureus [3],13 µM
same,MIC,Klebsiella pneumoniae,6 µM
same,MIC,Escherichia coli [4],13 µM
same,MIC,Staphylococcus aureus [6],25 µM
same,MIC,Escherichia coli [9],13 µM
same,MIC,Staphylococcus aureus [13],2 µM
same,MIC,Staphylococcus aureus [14],100 µM
same,fold change (FC),Escherichia coli [15],64
same,MIC,Acinetobacter baumannii,6 µM
same,MIC,Enterococcus faecalis,6 µM
same,MIC,Pseudomonas aeruginosa [27],25 µM
COc1ccc2cc3[n+](cc2c1OCC(O)CN1CCNCC1)CCc1cc2c(cc1-3)OCO2.[Br-] (stereo not given),MIC,Pseudomonas aeruginosa [1],118 µM
same,MIC,Staphylococcus aureus [3],235 µM
same,MIC,Klebsiella pneumoniae,15 µM
same,MIC,Escherichia coli [4],118 µM
same,MIC,Staphylococcus aureus [6],59 µM
same,solubility,[7],3810 µM
same,MIC,Escherichia coli [9],235 µM
same,MIC,Staphylococcus aureus [13],118 µM
same,MIC,Staphylococcus aureus [14],118 µM
same,MIC,Acinetobacter baumannii,118 µM
same,MIC,Enterococcus faecalis,118 µM
same,MIC,Pseudomonas aeruginosa [27],15 µM
COc1ccc2cc3[n+](cc2c1OCC(O)Cn1cnc2cc([N+](=O)[O-])ccc21)CCc1cc2c(cc1-3)OCO2.[Br-] (stereo not given),MIC,Pseudomonas aeruginosa [1],26 µM
same,MIC,Staphylococcus aureus [3],26 µM
same,MIC,Klebsiella pneumoniae,103 µM
same,MIC,Escherichia coli [4],51 µM
same,MIC,Staphylococcus aureus [6],103 µM
same,solubility,[7],895 µM
same,MIC,Escherichia coli [9],103 µM
same,MIC,Staphylococcus aureus [13],103 µM
same,MIC,Staphylococcus aureus [14],51 µM
same,MIC,Acinetobacter baumannii,103 µM
same,MIC,Enterococcus faecalis,51 µM
same,MIC,Pseudomonas aeruginosa [27],103 µM
COc1ccc2cc3[n+](cc2c1OCC(O)CN1CCCCC1)CCc1cc2c(cc1-3)OCO2.[Br-] (stereo not given),MIC,Pseudomonas aeruginosa [1],236 µM
same,MIC,Staphylococcus aureus [3],236 µM
same,MIC,Klebsiella pneumoniae,236 µM
same,MIC,Escherichia coli [4],118 µM
same,MIC,Staphylococcus aureus [6],59 µM
same,solubility,[7],2000 µM
same,MIC,Escherichia coli [9],236 µM
same,MIC,Staphylococcus aureus [13],118 µM
same,MIC,Staphylococcus aureus [14],236 µM
same,MIC,Acinetobacter baumannii,118 µM
same,MIC,Enterococcus faecalis,118 µM
same,MIC,Pseudomonas aeruginosa [27],118 µM
CCN(CC)CC(O)COc1c(OC)ccc2cc3[n+](cc12)CCc1cc2c(cc1-3)OCO2.[Br-] (stereo not given),MIC,Pseudomonas aeruginosa [1],60 µM
same,MIC,Staphylococcus aureus [3],120 µM
same,MIC,Klebsiella pneumoniae,241 µM
same,MIC,Escherichia coli [4],241 µM
same,MIC,Staphylococcus aureus [6],60 µM
same,solubility,[7],3320 µM
same,MIC,Escherichia coli [9],120 µM
same,MIC,Staphylococcus aureus [13],60 µM
same,MIC,Staphylococcus aureus [14],60 µM
same,MIC,Acinetobacter baumannii,60 µM
same,MIC,Enterococcus faecalis,120 µM
same,MIC,Pseudomonas aeruginosa [27],60 µM
COc1ccc2cc3[n+](cc2c1OCC(O)CSc1nc2ccccc2[nH]1)CCc1cc2c(cc1-3)OCO2.[Br-] (stereo not given),MIC,Pseudomonas aeruginosa [1],53 µM
same,MIC,Staphylococcus aureus [3],53 µM
same,MIC,Klebsiella pneumoniae,53 µM
same,MIC,Escherichia coli [4],53 µM
same,MIC,Staphylococcus aureus [6],53 µM
same,solubility,[7],783 µM
same,MIC,Escherichia coli [9],105 µM
same,MIC,Staphylococcus aureus [13],105 µM
same,MIC,Staphylococcus aureus [14],53 µM
same,MIC,Acinetobacter baumannii,26 µM
same,MIC,Enterococcus faecalis,53 µM
same,MIC,Pseudomonas aeruginosa [27],105 µM
COc1ccc2cc3[n+](cc2c1OCC(O)CN(CCO)CCO)CCc1cc2c(cc1-3)OCO2.[Br-] (stereo not given),MIC,Pseudomonas aeruginosa [1],114 µM
same,MIC,Staphylococcus aureus [3],227 µM
same,MIC,Klebsiella pneumoniae,227 µM
same,MIC,Escherichia coli [4],114 µM
same,MIC,Staphylococcus aureus [6],57 µM
same,solubility,[7],4240 µM
same,MIC,Escherichia coli [9],114 µM
same,MIC,Staphylococcus aureus [13],14 µM
same,MIC,Staphylococcus aureus [14],28 µM
same,MIC,Acinetobacter baumannii,114 µM
same,MIC,Enterococcus faecalis,114 µM
same,MIC,Pseudomonas aeruginosa [27],114 µM
